Data published in patent US10450314B2, “Pteridine derivatives as modulators of ROR gamma” (Boehringer Ingelheim International GmbH, priority 2015, dated 2019).

Experiments:
[1] = Human liver microsome (HLM) metabolic stability assay; format: in vitro ADME; conditions: human liver microsomes, 1 uM compound, 37° C., 60 min; % hepatic blood flow
Description: Assessment of Metabolic Stability
The 5 time point, high-throughput human liver microsome (HLM) metabolic stability assay is designed to determine in vitro compound metabolism. Compounds are incubated with HLMs at a concentration of 1 uM, at 37° C., for a total of 60 min. The percent of compound remaining at 5, 15, 30, and 60 min is used to calculate the t1/2 (min), CLint (mL/min/kg), CLh (mL/min/kg), and % Qh. The assay is based on a 96-well format and can accommodate up to 92 compounds per plate (n=1).
Using the 96-well multi-channel head, the Biomek FX, equipped with a Peltier heating block/shaker, is programmed to accomplish the following steps: • 1. Pipette 175 uL of 1.15 mg/mL microsomes into each of the 96 conical inserts (Analytical Sales and Products, catalog number 96PL05) that fit into the plate of the Peltier heating block/shaker (the incubation plate) • 2. Add 5 uL of compounds from the assay plate to the microsomes and shake the mixture at 600 rpm at 42.1° C. for 10 min (a setting of 42.1° C. on the Peltier is required for the samples to incubate at 37° C.) • 3. After 10 min, prompt the user to add the NADPH plate to the deck and add 20 uL from the NADPH plate to the incubation plate to start the reaction • 4. Add 215 uL of 100%, cold acetonitrile containing an internal standard(s) to a 0 minute, 5 minute, 15 minute, 30 minute, and 60 minute “quench” plate • 5. At 0 min, 5 min, 15 min, 30 min, and 60 min into the incubation, aspirate 12 uL from the incubation mixture and add it to the quench solution to stop the reaction • 6. Add 185 uL HPLC grade water to each well of the 0, 5, 15, 30 and 60 minute quench plates to dilute compounds to the appropriate concentration for the mass spectrometer
After all time points are collected, the quench plates are sealed with 96-well pierceable plate mats or heat sealing foil and centrifuged at 3000 rpm for 15 min to pellet the microsomes.
The plates are analyzed using LC/MS/MS with electron spray ionization (ESI) and the previously determined MRM transitions. The LC method includes the following parameters:
Using an Excel template in Activitybase, the peak areas corresponding to 5, 15, 30 and 60 min are compared to the peak area at 0 min to calculate the percent of remaining compound using the following equation:
Percent compound remaining=(AUC at Time t min/AUC at Time 0 min)×100 where t=0, 5, 15, 30 or 60 min.
Time (min) is plotted against the natural logarithm (Ln) of the percent compound remaining to determine the slope. The slope is used to calculate t1/2 (min) using the equation, t1/2=0.693/slope.
Clint, Intrinsic Clearance

RORγ = biological target: T1, RORγ (Homo sapiens, UniProt P51449); assay: RORγ Reporter Gene Assay (RGA), luciferase transactivation in transiently transfected HEK 293 cells; format: cell-based; conditions: HEK 293 cells cotransfected with pGL4.3 luc2P/GAL4UAS and pBIND Gal4DBD hRORC LBD; 20-24 h incubation
T1 construct: expressed in transfected cells; host or cells: HEK 293 cells, transiently cotransfected with pGL4.3 luc2P/GAL4UAS/Hygro reporter
T1 sequence (P51449 269-508 limits assumed): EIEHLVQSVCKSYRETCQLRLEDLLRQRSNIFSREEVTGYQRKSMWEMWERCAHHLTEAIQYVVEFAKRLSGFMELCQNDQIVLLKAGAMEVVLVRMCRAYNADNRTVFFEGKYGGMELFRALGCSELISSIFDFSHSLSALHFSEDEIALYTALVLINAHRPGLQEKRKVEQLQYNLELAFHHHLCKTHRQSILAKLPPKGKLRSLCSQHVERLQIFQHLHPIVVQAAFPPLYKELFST
Description: Reporter Gene Assay (RGA)
A nuclear receptor transactivation assay is performed to quantitate the ability of test compounds to inhibit RORγ transactivation of a luciferase reporter. A similar assay is described in: Khan et al., Bioorganic & Medicinal Chemistry Letters 23 (2013), 532-536. The system uses transiently transfected HEK 293 cells cotransfected with two plasmids (pGL4.3, luc2P/GAL4UAS/Hygro, and pBIND, Gal4DBD hRORC LBD1-3). The positive control is co-transiently transfected with both plasmids, and the negative control contains the pGL4.3 promoter sequence. Assays are assembled in 384 well plates where transiently transfected cells and test compound at varying concentrations are incubated for 20-24 h. The next day, assays plates are taken out and equilibrated at RT for 20-30 minutes. Bright-Glo™ Luciferase Assay System is used to detect Luciferase production. After addition of Bright GLO detection reagent, the plates are incubated at RT for 20 minutes. The plates are read on an Envision plate reader to measure luminescence signal. The RLU signal is converted to POC relative to control and blank wells.
Compound Dilution Buffer:
Bright Glo Luciferase Assay System: Promega #E2620
Thaw lysis buffer provided in kit, add 100 mL lysis buffer to substrate powder.

| Compound | HLM (% Qh) [1] [% Qh] | IC50 (RORγ) [nM] |
| --- | --- | --- |
| Cc1ncnc(C2CC2)c1-c1nc(C)c2nc(NCc3ccc(S(N)(=O)=O)nc3)c(=O)n([C@@H](C)C(F)(F)F)c2n1 [Example 98] | <24 | 1100 |
| COc1ncnc(C2CC2)c1-c1nc(C)c2nc(NCc3ccc(S(C)(=N)=O)cc3)c(=O)n([C@@H](C)C(F)(F)F)c2n1 (single isomer, unassigned) [Example 99b] | 41 | 260 |
| Cc1ncnc(C2CC2)c1-c1nc(C)c2nc(NCc3ccc(S(C)(=O)=O)cn3)c(=O)n([C@@H](C#N)C(C)C)c2n1 [Example 31] | 55 | 850 |
| CCS(=N)(=O)c1ccc(CNc2nc3c(C)nc(-c4c(C)ncnc4C4CC4)nc3n([C@@H](C)C3CC3)c2=O)nc1 (single isomer, unassigned) [Example 42b] | <24 | 390 |
| Cc1ncnc(C2CC2)c1-c1nc(C)c2nc(NCc3ccc(S(C)(=O)=O)cn3)c(=O)n([C@@H](C)CF)c2n1 [Example 49] | <24 | 4200 |
| CC[C@H](C)n1c(=O)c(NCc2ccc(S(C)(=N)=O)cc2)nc2c(C)nc(-c3c(C)ncnc3C3CC3)nc21 (some centres unmarked) [Example 84] | 33 | 195 |
| CC[C@@H](C)n1c(=O)c(NCc2ncc(S(C)(=O)=O)cn2)nc2c(C)nc(-c3c(C)ncnc3C3CC3)nc21 [Example 57] | <24 | 500 |
| CC[C@H](C)n1c(=O)c(NCc2ccc(S(C)(=N)=O)cc2)nc2c(C)nc(-c3c(OC)ncnc3C3CC3)nc21 (some centres unmarked) [Example 83] | 32 | 250 |
| CCS(=N)(=O)c1ccc(CNc2nc3c(C)nc(-c4c(OC)ncnc4C4CC4)nc3n([C@@H](C)C(F)(F)F)c2=O)nc1 (single isomer, unassigned) [Example 101b] | <24 | 315 |
| CCS(=N)(=O)c1ccc(CNc2nc3c(C)nc(-c4c(C)ncnc4C4CC4)nc3n([C@@H](C)C3CC3)c2=O)cc1 (single isomer, unassigned) [Example 36b] | <24 | 245 |
| Cc1ncnc(C2CC2)c1-c1nc(C)c2nc(NCc3ccc(S(C)(=N)=O)cc3)c(=O)n([C@@H](C)C(F)(F)F)c2n1 (single isomer, unassigned) [Example 91b] | <24 | 255 |
| Cc1ncnc(C2CC2)c1-c1nc(C)c2nc(NCc3ccc(S(N)(=O)=O)cn3)c(=O)n([C@@H](C)C(F)(F)F)c2n1 [Example 96] | <24 | 280 |
| CCS(=O)(=O)c1ccc(CNc2nc3c(C)nc(-c4c(C)ncnc4C4CC4)nc3n([C@@H](C)CF)c2=O)nc1 [Example 48] | <24 | 1200 |
| CCS(=O)(=O)c1ccc(CNc2nc3c(C)nc(-c4c(OC)ncnc4C4CC4)nc3n(CC(C)C)c2=O)nc1 [Example 80] | <24 | 255 |
| COc1ncnc(C2CC2)c1-c1nc(C)c2nc(NCc3ccc(S(N)(=O)=O)cn3)c(=O)n(CC(C)C)c2n1 [Example 70] | <24 | 1300 |
| CC[C@@H](C)n1c(=O)c(NCc2ccc(S(=O)(=O)CC)cn2)nc2c(CO)nc(-c3c(OC)ncnc3C3CC3)nc21 [Example 1] | <24 | 200 |
| CCS(=O)(=O)c1ccc(CNc2nc3c(C)nc(-c4c(OC)ncnc4C4CC4)nc3n(CC(C)C)c2=O)cn1 [Example 78] | <24 | 275 |
| CCS(=N)(=O)c1ccc(CNc2nc3c(C)nc(-c4c(C)ncnc4C4CC4)nc3n([C@@H](C)C3CC3)c2=O)cc1 (single isomer, unassigned) [Example 36a] | <24 | 260 |
| CC[C@H](C)n1c(=O)c(NCc2ccc(S(N)(=O)=O)cn2)nc2c(C)nc(-c3c(C)ncnc3C3CC3)nc21 [Example 85] | <24 | 270 |
| CC[C@@H](C)n1c(=O)c(NCc2ccc(S(=O)(=O)CC)cn2)nc2c(OC)nc(-c3c(C)ncnc3C3CC3)nc21 [Example 21] | <24 | 1900 |
| Cc1ncnc(C2CC2)c1-c1nc(C)c2nc(NCc3ccc(S(C)(=N)=O)cn3)c(=O)n([C@@H](C)C3CC3)c2n1 (single isomer, unassigned) [Example 43b] | <24 | 400 |

These reach a lower IC50 (RORγ). Values come first.

| HLM (% Qh) [1] [% Qh] | IC50 (RORγ) [nM] | Compound |
| --- | --- | --- |
| 38 | 102 | CCS(=O)(=O)c1ccc(CNc2nc3c(C)nc(-c4c(OC)ncnc4C4CC4)nc3n([C@@H](C)C(F)(F)F)c2=O)nc1 [Example 88] |
| <24 | 140 | CCS(=O)(=O)c1cnc(CNc2nc3c(C)nc(-c4c(OC)ncnc4C4CC4)nc3n([C@@H](C)C(F)(F)F)c2=O)nc1 [Example 22] |
| 78 | 98 | CC[C@@H](C)n1c(=O)c(NCC2CCN(S(C)(=O)=O)CC2)nc2c(C)nc(-c3c(C)ncnc3C3CC3)nc21 [Example 59] |
| 25 | 64 | CCS(=O)(=O)c1ccc(CNc2nc3c(C)nc(-c4c(OC)ncnc4C4CC4)nc3n([C@@H](C)C3CC3)c2=O)cn1 [Example 66] |
| <24 | 77 | CCS(=O)(=O)c1ccc(CNc2nc3c(C)nc(-c4c(C)ncnc4C4CC4)nc3n([C@@H](C)C3CC3)c2=O)cn1 [Example 74] |
| 62 | 165 | COc1ncnc(C2CC2)c1-c1nc(C)c2nc(NCc3ccc(S(C)(=O)=O)nc3)c(=O)n([C@@H](C)C(F)(F)F)c2n1 [Example 19] |
| 33 | 160 | CC[C@@H](C)n1c(=O)c(NCc2ccc(S(=O)(=O)CC)cn2)nc2c(CF)nc(-c3c(C)ncnc3C3CC3)nc21 [Example 53] |
| 39 | 130 | COc1ncnc(C2CC2)c1-c1nc(C)c2nc(NCc3ccc(S(C)(=O)=O)cn3)c(=O)n([C@@H](C)C(F)(F)F)c2n1 [Example 17] |
| 40 | 150 | COc1ncnc(C2CC2)c1-c1nc(C)c2nc(NCc3ccc(S(N)(=O)=O)cn3)c(=O)n([C@@H](C)C(F)(F)F)c2n1 [Example 95] |
| <24 | 87 | CCS(=O)(=O)c1cnc(CNc2nc3c(C)nc(-c4c(C)ncnc4C4CC4)nc3n([C@@H](C)C3CC3)c2=O)nc1 [Example 6] |
| <24 | 185 | CC[C@H](C)n1c(=O)c(NCc2ccc(S(N)(=O)=O)cn2)nc2c(C)nc(-c3c(OC)ncnc3C3CC3)nc21 [Example 81] |
| <24 | 115 | CC[C@H](C)n1c(=O)c(NCc2ccc(S(C)(=O)=O)cn2)nc2c(C)nc(-c3c(C)ncnc3C3CC3)nc21 [Example 14] |
| 27 | 125 | COc1ncnc(C2CC2)c1-c1nc(C)c2nc(NCc3ccc(S(N)(=O)=O)cn3)c(=O)n([C@@H](C)C3CC3)c2n1 [Example 62] |
